The text below walks through data of article PMC5772984 (International journal for parasitology, 2017).

For series [1], the system named is Tufts University TU502 C. hominis. To be noted: Cryptosporidium hominis, HCT-8.
In series [2] the test system is UGA1 N-luciferase expressing C. parvum. The experiment in a line: Nluc expressing C. parvum in vitro growth inhibition in infected HCT-8 cells. The series is classed as cell-based. Particulars: Cryptosporidium parvum.
In a further series the test system is C. parvum. Particulars: Cryptosporidium parvum.
The subject of another series is Cryptosporidium. To be noted: 1–5 year old malnourished children; ref Amadi et al., 2002; cited from earlier work.
A further series concerns HepG2 cells. To be noted: ref Hulverson et al., 2017; cited from earlier work.
Series [3] concerns the target UGA1 N-luciferase expressing C. parvum. Particulars: read-out: EC50 in vitro against C. parvum; ref Hulverson et al., 2017; cited from earlier work.
Another series relates to Cryptosporidium parvum. Particulars: oral dosing; ref Hulverson et al., 2017; cited from earlier work.
For the next series, the system named is CRL-8155 cells. To be noted: ref Hulverson et al., 2017; cited from earlier work.

Molecules are shown by their SMILES. Read-outs that look alike come from different tables or passages of the source.

For the molecule `CC(=O)Oc1ccccc1C(=O)Nc1ncc([N+](=O)[O-])s1` [Nitazoxanide, nitazoxanide], the EC50 was 2780 nM in series [1]; 3.1 µM in series [2]; 1900 nM with C. parvum (HCT-8, Bunch Grass Farm C. parvum, high-content imaging); 1680 nM with C. parvum (HCT-8, University of Arizona C. parvum). The “Effectiveness in children with cryptosporidiosis” value with Cryptosporidium is given as “approximately 30%”.

With `CCOc1ccc2cc(-c3nn(CC4CCNCC4)c4ncnc(N)c34)ccc2n1` [BKI 1318], the In vitro cytotoxicity result in the series on HepG2 cells and in the series on CRL-8155 cells was “no toxicity” each time. Besides, the EC50 in series [3] was 3.2 µM. Further, the “Efficacy when orally dosed in vivo in mice” value with Cryptosporidium parvum is given as “lacked efficacy”.
